Reference: ChEMBL document CHEMBL5329192, “Synthesis, biological activities, and future perspectives of steroidal monocyclic pyridines” (RSC Med Chem, 2023)

Assays:
ECa-109 cell line = test: Cytotoxicity against human Eca-109 cells assessed as reduction in cell viability incubated for 72 hrs by MTT assay; format: functional, cell-based; details: ECa-109, 72 h
MGC-803 = test: Cytotoxicity against human MGC-803 cells assessed as reduction in cell viability incubated for 72 hrs by MTT assay; format: functional, cell-based; details: MGC-803, 72 h
PC-3 = test: Cytotoxicity against human PC-3 cells assessed as reduction in cell viability incubated for 72 hrs by MTT assay; format: functional, cell-based; details: PC-3, 72 h
MCF7 [1] = test: Cytotoxicity against human MCF7 cells assessed as reduction in cell viability incubated for 72 hrs by MTT assay; format: functional, cell-based; details: MCF7, 72 h
A549 = test: Cytotoxicity against human A549 cells assessed as reduction in cell viability incubated for 72 hrs by MTT assay; format: functional, cell-based; details: A549, 72 h
[2] = Cytotoxicity against human HEp-2 cells assessed as reduction in cell viability incubated for 48 hrs by MTT assay; format: toxicity, cell-based
MCF7 [3] = test: Antiproliferative activity against human MCF7 cells assessed as reduction in cell growth incubated for 48 hrs by MTT assay; format: functional, cell-based; details: MCF7, 48 h
SK-OV-3 = test: Antiproliferative activity against human SK-OV-3 cells assessed as reduction in cell growth incubated for 48 hrs by MTT assay; format: functional, cell-based; details: SK-OV-3, 48 h
HeLa = test: Antiproliferative activity against human HeLa cells assessed as reduction in cell growth incubated for 48 hrs by MTT assay; format: functional, cell-based
HepG2 = test: Antiproliferative activity against human HepG2 cells assessed as reduction in cell growth incubated for 48 hrs by MTT assay; format: functional, cell-based; details: HepG2, 48 h
[4] = Acute toxicity in ip dosed albino rat administered twice daily for 14 days; format: organism-based; details: in vivo, time 14 day
Rattus norvegicus [5] = test: Anti-androgen activity against albino rat assessed as mass gain of prostate gland at 0.1 mg/kg, sc administered for 7 days; format: functional; details: time 7 day
Rattus norvegicus [6] = species on record: Rattus norvegicus; test: Ratio of anti-anabolic activity against albino rat assessed as reduction in mass of levator ani-muscle to anti-androgenic activity against albino rat assessed as mass gain of prostate gland; format: functional

Row | SMILES | IC50 (ECa-109 cell line) | IC50 (MGC-803) | IC50 (PC-3) | IC50 (MCF7 [1]) | IC50 (A549) | IC50 (MCF7 [3]) | IC50 (SK-OV-3) | IC50 (HeLa) | IC50 (HepG2) | other results
1 | C[C@]12CC[C@H]3[C@@H](CC=C4C[C@@H](O)CC[C@@]43C)[C@@H]1CC[C@@H]2c1cc(-c2ccc(F)c(Br)c2)c(C#N)c(N)n1 | > 64 µM | > 64 µM | 5.9 µM | 37.3 µM | 56.2 µM | – | – | – | – | –
2 | CC(=O)O[C@H]1CC[C@@]2(C)C(=CC[C@H]3[C@@H]4CC[C@H](c5cc(-c6cccc(Cl)c6)c(C#N)c(N)n5)[C@@]4(C)CC[C@@H]32)C1 | – | – | – | – | – | – | – | – | – | CC50 at 48 h [2]: 181 µM
3 | COc1cccc(-c2cc([C@H]3CC[C@H]4[C@@H]5CC=C6C[C@@H](OC(C)=O)CC[C@]6(C)[C@H]5CC[C@]34C)nc(N)c2C#N)c1 | – | – | – | – | – | – | – | – | – | CC50 at 48 h [2]: 160 µM
4 | C[C@]12CC[C@H]3[C@@H](CC=C4C[C@@H](O)CC[C@@]43C)[C@@H]1CC[C@@H]2c1cc(-c2ccccc2)c(C#N)c(N)n1 | > 64 µM | 10.9 µM | 3.2 µM | 16 µM | 43.2 µM | 15.5 µM | 13.1 µM | 14.6 µM | 23.8 µM | –
5 | CC(=O)O[C@H]1CC[C@@]2(C)C(=CC[C@H]3[C@@H]4CC[C@H](c5cc(-c6ccc(C#N)cc6)c(C#N)c(N)n5)[C@@]4(C)CC[C@@H]32)C1 | – | – | – | – | – | – | – | – | – | CC50 at 48 h [2]: 39.3 µM
6 | C[C@]12CC[C@H]3[C@@H](CC=C4C[C@@H](O)CC[C@@]43C)[C@@H]1CC[C@@H]2c1cc(-c2cccnc2)c(C#N)c(N)n1 | – | – | – | – | – | 30.2 µM | 92.2 µM | 105 µM | 75.5 µM | –
7 | CC(=O)O[C@H]1CC[C@@]2(C)C(=CC[C@H]3[C@@H]4CC[C@H](c5cc(-c6ccc(Cl)cc6)c(C#N)c(N)n5)[C@@]4(C)CC[C@@H]32)C1 | – | – | – | – | – | – | – | – | – | CC50 at 48 h [2]: 252 µM
8 | C[C@]12CC[C@H]3[C@@H](CC=C4C[C@@H](O)CC[C@@]43C)[C@@H]1CC[C@@H]2c1cc(-c2ccnc(Br)c2)c(C#N)c(N)n1 | 22.3 µM | 19.7 µM | 7 µM | > 64 µM | 43.6 µM | – | – | – | – | –
9 | C[C@]12CC[C@H]3[C@@H](CC=C4C[C@@H](O)CC[C@@]43C)[C@@H]1CC[C@@H]2c1cc(-c2ccc(F)cc2F)c(C#N)c(N)n1 | 58 µM | 22.7 µM | 3.5 µM | 30.3 µM | > 64 µM | – | – | – | – | –
10 | C[C@]12CC[C@H]3[C@@H](CC=C4C[C@@H](O)CC[C@@]43C)[C@@H]1CC[C@@H]2c1cc(-c2cccc(Br)c2)c(C#N)c(N)n1 | – | – | – | – | – | 28.9 µM | 17.7 µM | 46.5 µM | 41.2 µM | –
11 | COc1ccccc1-c1cc([C@H]2CC[C@H]3[C@@H]4CC=C5C[C@@H](OC(C)=O)CC[C@]5(C)[C@H]4CC[C@]23C)nc(N)c1C#N | – | – | – | – | – | – | – | – | – | CC50 at 48 h [2]: 299 µM
12 | COc1cccc(-c2cc([C@H]3CC[C@H]4[C@@H]5CC=C6C[C@@H](O)CC[C@]6(C)[C@H]5CC[C@]34C)nc(N)c2C#N)c1 | > 64 µM | > 64 µM | 7.5 µM | 27.4 µM | > 64 µM | – | – | – | – | –
13 | COc1ccc(-c2cc([C@H]3CC[C@H]4[C@@H]5CC=C6C[C@@H](OC(C)=O)CC[C@]6(C)[C@H]5CC[C@]34C)nc(N)c2C#N)cc1 | – | – | – | – | – | – | – | – | – | CC50 at 48 h [2]: > 400 µM
14 | C[C@]12CC[C@H]3[C@@H](CC=C4C[C@@H](O)CC[C@@]43C)[C@@H]1CC[C@@H]2c1cc(-c2c(F)cccc2F)c(C#N)c(N)n1 | > 64 µM | 8.8 µM | 2 µM | 11.6 µM | 17.3 µM | – | – | – | – | –
15 | COc1ccc(-c2cc([C@H]3CC[C@H]4[C@@H]5CC=C6C[C@@H](O)CC[C@]6(C)[C@H]5CC[C@]34C)nc(N)c2C#N)cc1 | > 64 µM | 57.8 µM | 5.7 µM | 51.1 µM | > 64 µM | 101 µM | 32.5 µM | 40.3 µM | 34.8 µM | –
16 | CC(=O)O[C@H]1CC[C@@]2(C)C(=CC[C@H]3[C@@H]4CC[C@H](c5cc(-c6c(F)cccc6F)c(C#N)c(N)n5)[C@@]4(C)CC[C@@H]32)C1 | – | – | – | – | – | – | – | – | – | CC50 at 48 h [2]: 374 µM
17 | CC(=O)O[C@H]1CC[C@@]2(C)C(=CC[C@H]3[C@@H]4CC[C@H](c5cc(-c6ccccc6)c(C#N)c(N)n5)[C@@]4(C)CC[C@@H]32)C1 | – | – | – | – | – | – | – | – | – | CC50 at 48 h [2]: 227 µM
18 | C[C@]12CC[C@H]3[C@@H](CC=C4C[C@@H](O)CC[C@@]43C)[C@@H]1CC[C@@H]2c1cc(-c2ccc(Cl)cc2)c(C#N)c(N)n1 | 48.9 µM | 55 µM | 15.7 µM | 26.2 µM | 43.9 µM | – | – | – | – | –

Row | SMILES | IC50 (ECa-109 cell line) | IC50 (MGC-803) | IC50 (PC-3) | IC50 (MCF7 [1]) | IC50 (A549) | IC50 (MCF7 [3]) | IC50 (SK-OV-3) | IC50 (HeLa) | IC50 (HepG2) | other results
19 | C[C@]12CC[C@H]3[C@@H](CC=C4C[C@@H](O)CC[C@@]43C)[C@@H]1CC[C@@H]2c1cc(-c2cccc(OCc3ccccc3)c2)c(C#N)c(N)n1 | – | – | – | – | – | 41.1 µM | 21.8 µM | 22 µM | 21.5 µM | –
20 | COc1ccccc1-c1cc([C@H]2CC[C@H]3[C@@H]4CC=C5C[C@@H](O)CC[C@]5(C)[C@H]4CC[C@]23C)nc(N)c1C#N | 19.7 µM | 17 µM | 8 µM | 45.2 µM | 20.7 µM | – | – | – | – | –
21 | C[C@]12CC[C@H]3[C@@H](CC=C4C[C@@H](O)CC[C@@]43C)[C@@H]1CC[C@@H]2c1cc(-c2ccccc2F)c(C#N)c(N)n1 | 17.8 µM | 9.4 µM | 3.2 µM | 10.1 µM | 28.8 µM | – | – | – | – | –
22 | C[C@]12CC[C@H]3[C@@H](CC=C4C[C@@H](O)CC[C@@]43C)[C@@H]1CC[C@@H]2c1cc(-c2cccc(O)c2)c(C#N)c(N)n1 | – | – | – | – | – | 6.28 µM | 7.02 µM | 7.36 µM | 13.8 µM | –
23 | C[C@]12CC[C@H]3[C@@H](CC=C4C[C@@H](O)CC[C@@]43C)[C@@H]1CC[C@@H]2c1cc(-c2ccncc2)c(C#N)c(N)n1 | – | – | – | – | – | 47.8 µM | 18.9 µM | 73.3 µM | 103 µM | –
24 | C[C@]12CC[C@H]3[C@@H](CC=C4C[C@@H](O)CC[C@@]43C)[C@@H]1CC[C@@H]2c1cc(-c2ccc(OCc3ccccc3)cc2)c(C#N)c(N)n1 | – | – | – | – | – | 19 µM | 26.1 µM | 63.2 µM | 15.9 µM | –
25 | C[C@]12CC[C@H]3[C@@H](CC=C4C[C@@H](O)CC[C@@]43C)[C@@H]1CC[C@@H]2c1cc(-c2ccco2)c(C#N)c(N)n1 | – | – | – | – | – | 18.8 µM | 13.9 µM | 16.3 µM | 25.8 µM | –
26 | CCOc1ccc(-c2cc([C@H]3CC[C@H]4[C@@H]5CC=C6C[C@@H](O)CC[C@]6(C)[C@H]5CC[C@]34C)nc(N)c2C#N)cc1 | – | – | – | – | – | 31.2 µM | 28.3 µM | 26.7 µM | 26.7 µM | –
27 | CC(=O)O[C@H]1CC[C@@]2(C)C(=CC[C@H]3[C@@H]4CC[C@H](c5cc(-c6ccc(F)cc6F)c(C#N)c(N)n5)[C@@]4(C)CC[C@@H]32)C1 | – | – | – | – | – | – | – | – | – | CC50 at 48 h [2]: 174 µM
28 | C[C@]12CC[C@H]3[C@@H](CC=C4C[C@@H](O)CC[C@@]43C)[C@@H]1CC[C@@H]2c1cc(-c2ccc(Br)cc2)c(C#N)c(N)n1 | – | – | – | – | – | 12 µM | 7.66 µM | 12.2 µM | 15.2 µM | –
29 | C[C@]12CC[C@H]3[C@@H](CC=C4C[C@@H](O)CC[C@@]43C)[C@@H]1CC[C@@H]2c1cc(-c2ccccc2Br)c(C#N)c(N)n1 | – | – | – | – | – | 33.9 µM | 11.2 µM | 18.6 µM | 28.4 µM | –
30 | C[C@]12CC[C@H]3[C@@H](CC=C4C[C@@H](O)CC[C@@]43C)[C@@H]1CC[C@@H]2c1cc(-c2ccc(OCc3ccccc3)c(OCc3ccccc3)c2OCc2ccccc2)c(C#N)c(N)n1 | – | – | – | – | – | 105 µM | 33.9 µM | 38.9 µM | 41.4 µM | –
31 | COc1ccc(-c2cc([C@H]3CC[C@H]4[C@@H]5CC=C6C[C@@H](O)CC[C@]6(C)[C@H]5CC[C@]34C)nc(N)c2C#N)cc1O | – | – | – | – | – | 17 µM | 17.3 µM | 15 µM | 50.2 µM | –
32 | COc1ccc(-c2cc([C@H]3CC[C@H]4[C@@H]5CC=C6C[C@@H](O)CC[C@]6(C)[C@H]5CC[C@]34C)nc(N)c2C#N)cc1OC | – | – | – | – | – | 107 µM | 29.5 µM | 107 µM | 55.4 µM | –
33 | C[C@]12CC[C@H](O)C[C@@H]1CC[C@@H]1[C@@H]2CC[C@]2(C)c3c(c(-c4ccccc4)[nH]c(=O)c3C#N)C[C@@H]12 | – | – | – | – | – | – | – | – | – | LD50 at 336 h [4]: 4920 mg/kg; Activity (Rattus norvegicus [5]): 0.234 g; Ratio (Rattus norvegicus [6]): 11.3
34 | C[C@]12CC[C@H]3[C@@H](CC=C4C[C@@H](O)CC[C@@]43C)[C@@H]1CC[C@@H]2c1cc(-c2ccccc2Cl)c(C#N)c(N)n1 | 30.1 µM | 8.4 µM | 3.7 µM | 18.8 µM | 33.3 µM | – | – | – | – | –
35 | C[C@]12CC[C@H]3[C@@H](CC=C4C[C@@H](O)CC[C@@]43C)[C@@H]1CC[C@@H]2c1cc(-c2cccc(Cl)c2)c(C#N)c(N)n1 | > 64 µM | > 64 µM | 9.7 µM | 29 µM | 30.3 µM | – | – | – | – | –
